Laboratory results taken from ChEMBL document CHEMBL1201862, “PubChem BioAssay data set” (2004).
Activity calls are given as the source filed them.

Experiments:
[1] = target: T1, Replicative DNA helicase DnaB (Mycobacterium tuberculosis, UniProt P9WMR3); experiment: DnaB intein splicing inhibitors, dose response, biochemical, cell-free fluorescence (AID 449749); assay type: functional
T1 sequence (P9WMR3 whole entry): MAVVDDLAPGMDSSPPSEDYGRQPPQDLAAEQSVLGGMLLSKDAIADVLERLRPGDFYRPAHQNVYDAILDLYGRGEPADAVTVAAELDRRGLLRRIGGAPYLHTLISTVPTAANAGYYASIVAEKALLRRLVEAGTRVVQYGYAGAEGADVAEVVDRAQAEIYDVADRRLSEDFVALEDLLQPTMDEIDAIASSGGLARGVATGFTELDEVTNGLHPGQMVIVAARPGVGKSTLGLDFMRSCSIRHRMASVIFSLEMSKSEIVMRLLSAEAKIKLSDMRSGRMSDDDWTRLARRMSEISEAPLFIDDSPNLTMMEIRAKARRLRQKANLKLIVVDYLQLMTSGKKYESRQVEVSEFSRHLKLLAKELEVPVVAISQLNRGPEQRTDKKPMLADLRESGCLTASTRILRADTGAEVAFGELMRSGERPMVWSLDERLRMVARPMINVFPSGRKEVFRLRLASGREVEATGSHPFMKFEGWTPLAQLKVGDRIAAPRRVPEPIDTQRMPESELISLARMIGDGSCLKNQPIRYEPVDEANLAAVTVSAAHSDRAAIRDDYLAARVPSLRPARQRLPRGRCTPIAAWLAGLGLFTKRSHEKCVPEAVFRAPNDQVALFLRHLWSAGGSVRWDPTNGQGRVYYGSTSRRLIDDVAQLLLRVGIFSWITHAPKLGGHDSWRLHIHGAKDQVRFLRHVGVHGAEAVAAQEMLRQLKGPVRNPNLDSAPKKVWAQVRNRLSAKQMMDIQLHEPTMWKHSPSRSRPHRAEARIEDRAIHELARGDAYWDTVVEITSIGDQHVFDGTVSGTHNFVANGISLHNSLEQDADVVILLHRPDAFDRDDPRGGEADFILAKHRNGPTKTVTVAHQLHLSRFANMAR

Protein RecA = target: T2, Protein RecA (Mycobacterium tuberculosis, UniProt P9WHJ3); experiment: Fluorescence Cell-Free Homogeneous Dose Retest to Identify Inhibitors of RecA-Intein Splicing Activity. [Related pubchem assays (depositor defined):AID2097, AID2223, AID489010, AID492950]; assay type: functional
T2 sequence (P9WHJ3 whole entry): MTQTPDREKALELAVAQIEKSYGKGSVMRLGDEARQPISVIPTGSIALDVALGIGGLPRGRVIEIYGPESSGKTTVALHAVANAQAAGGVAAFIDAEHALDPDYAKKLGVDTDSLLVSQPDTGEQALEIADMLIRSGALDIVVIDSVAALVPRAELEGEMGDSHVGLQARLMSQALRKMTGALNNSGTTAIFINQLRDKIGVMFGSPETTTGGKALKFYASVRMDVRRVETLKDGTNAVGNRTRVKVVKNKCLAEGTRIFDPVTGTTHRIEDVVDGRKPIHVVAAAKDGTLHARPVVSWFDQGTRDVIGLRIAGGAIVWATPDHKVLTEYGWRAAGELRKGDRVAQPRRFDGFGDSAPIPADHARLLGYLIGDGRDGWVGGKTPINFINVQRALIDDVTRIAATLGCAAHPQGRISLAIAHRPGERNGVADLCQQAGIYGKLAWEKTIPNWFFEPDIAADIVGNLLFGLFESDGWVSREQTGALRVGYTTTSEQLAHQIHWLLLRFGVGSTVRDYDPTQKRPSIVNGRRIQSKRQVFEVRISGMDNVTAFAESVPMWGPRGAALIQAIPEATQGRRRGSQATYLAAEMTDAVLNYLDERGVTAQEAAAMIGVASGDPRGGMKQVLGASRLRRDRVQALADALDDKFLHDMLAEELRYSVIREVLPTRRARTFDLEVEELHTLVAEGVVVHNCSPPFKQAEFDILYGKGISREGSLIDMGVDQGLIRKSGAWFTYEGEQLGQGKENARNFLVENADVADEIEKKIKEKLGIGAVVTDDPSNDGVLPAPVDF

Caspase-3 = target: T3, Caspase-3 (Homo sapiens, UniProt P42574); experiment: Dose-response confirmation of uHTS inhibitor hits of Sentrin-Specific Protease 8 in a Caspase-3 Fluorescence assay.; assay type: functional
T3 sequence (P42574 whole entry): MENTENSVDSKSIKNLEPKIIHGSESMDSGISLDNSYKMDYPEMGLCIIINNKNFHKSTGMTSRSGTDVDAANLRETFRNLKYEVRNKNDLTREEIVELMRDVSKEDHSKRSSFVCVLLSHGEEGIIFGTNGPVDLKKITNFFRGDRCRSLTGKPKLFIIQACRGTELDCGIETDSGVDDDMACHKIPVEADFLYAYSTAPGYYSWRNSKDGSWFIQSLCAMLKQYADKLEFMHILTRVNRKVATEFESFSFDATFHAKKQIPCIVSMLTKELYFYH

[2] = target: T4, Sentrin-specific protease 8 (Homo sapiens, UniProt Q96LD8); assay type: functional
T4 sequence (Q96LD8 whole entry): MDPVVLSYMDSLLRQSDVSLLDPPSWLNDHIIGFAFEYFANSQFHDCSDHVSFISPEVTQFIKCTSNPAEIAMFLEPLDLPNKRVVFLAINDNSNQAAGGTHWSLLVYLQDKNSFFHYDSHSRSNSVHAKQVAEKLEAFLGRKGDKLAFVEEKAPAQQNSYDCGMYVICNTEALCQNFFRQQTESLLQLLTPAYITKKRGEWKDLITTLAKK

[3] = target: T5, Mannose-6-phosphate isomerase (Homo sapiens, UniProt P34949); experiment: human PMI inhibitors, high substrate, primary screen, biochemical, fluorescence intensity, high mannose 6-phosphate (AID 1220)
T5 sequence (P34949 whole entry): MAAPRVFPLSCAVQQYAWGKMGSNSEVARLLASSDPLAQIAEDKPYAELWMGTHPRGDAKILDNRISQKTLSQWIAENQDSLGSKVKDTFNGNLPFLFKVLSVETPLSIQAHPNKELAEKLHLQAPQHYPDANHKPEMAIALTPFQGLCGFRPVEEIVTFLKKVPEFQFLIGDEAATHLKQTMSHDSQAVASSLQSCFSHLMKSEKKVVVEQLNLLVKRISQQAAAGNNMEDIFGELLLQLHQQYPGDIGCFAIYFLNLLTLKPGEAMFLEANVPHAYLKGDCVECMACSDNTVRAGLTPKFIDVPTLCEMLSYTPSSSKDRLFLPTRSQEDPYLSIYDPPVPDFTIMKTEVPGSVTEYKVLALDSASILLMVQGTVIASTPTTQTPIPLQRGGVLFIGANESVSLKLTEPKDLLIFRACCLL

[4] = target: T4, Sentrin-specific protease 8; assay type: functional; remark: listed apart in the source
[5] = target: Disintegrin and metalloproteinase domain-containing protein 17 (Homo sapiens, UniProt P78536); experiment: exosite inhibitors of ADAM17, dose response, biochemical (AID 743260)
[6] = ADAM10 protease inhibitors, dose response, selectivity assay for ADAM17 exosite inhibitor project, biochemical, FRET peptide substrate, recombinant human ADAM10 (AID 743259);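 further: ADAM10 enzyme cleaving a FRET peptide substrate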
[7] = target: T6, Nuclear receptor subfamily 0 group B member 1 (Homo sapiens, UniProt P51843); assay type: functional, cell-based;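 further: HEK293T cells transfected with SF-1 and DAX-1 plus StAR promoter luciferase reporter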
T6 sequence (P51843 whole entry): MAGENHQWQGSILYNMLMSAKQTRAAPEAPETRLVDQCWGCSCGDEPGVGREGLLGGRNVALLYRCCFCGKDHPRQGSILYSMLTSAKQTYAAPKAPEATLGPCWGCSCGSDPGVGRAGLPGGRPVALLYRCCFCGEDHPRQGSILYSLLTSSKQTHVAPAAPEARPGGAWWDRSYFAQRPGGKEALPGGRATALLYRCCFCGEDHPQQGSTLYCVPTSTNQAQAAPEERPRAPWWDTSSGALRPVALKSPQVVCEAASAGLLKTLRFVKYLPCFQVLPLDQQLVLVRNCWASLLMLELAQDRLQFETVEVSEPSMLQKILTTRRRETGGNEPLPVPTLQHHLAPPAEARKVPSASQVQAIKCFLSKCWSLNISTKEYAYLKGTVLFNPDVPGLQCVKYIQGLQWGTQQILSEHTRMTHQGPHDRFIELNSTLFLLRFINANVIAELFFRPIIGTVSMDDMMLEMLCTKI

cells [8] = assay type: functional, cell-based
[9] = T. cruzi growth inhibition in host cells, dose response, cell-based, plate reader, dry powder, set 2 (AID 652275); assay type: functional
[10] = cytotoxicity in KRAS-transformed pancreatic duct cells, primary screen, cell-based, fluorescence, HTS (AID 431); assay type: functional; conditions: Homo sapiens;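 further: cell line used: HPDE-C7K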
Galanin receptor type 3 = Galanin receptor type 3 (Homo sapiens, UniProt O60755); experiment: Fluorescence-based cell-based primary high throughput dose response assay to identify antagonists of the Galanin Receptor 3 (GalR3).; assay type: functional
cells [11] = assay type: functional, cell-based; conditions: HEK-CNG
[12] = cytotoxicity in HPDE-C7 cells, cell-based, fluorescence, HTS (AID 430); assay type: functional; conditions: Homo sapiens
[13] = TRPM1 promoter luciferase reporter signal decrease, dose response, MITF inhibitor project, cell-based, SK-MEL-5, dry powder, set 8 (AID 624430); assay type: functional
[14] = MITF Orthogonal Assay: SK-MEL-5 CTG Assay Measured in Cell-Based System Using Plate Reader - 2084-02_Inhibitor_Dose_DryPowder_Activity_Set7.; assay type: functional
[15] = MITF: Counter assay: A375 proliferation Measured in Cell-Based System Using Plate Reader - 2084-03_Inhibitor_Dose_DryPowder_Activity_Set8.; assay type: functional; conditions: A-375
[16] = target: T7, High affinity choline transporter 1 (Homo sapiens, UniProt Q9GZV3); experiment: CHT inhibitors, dose response, cell-based, 5-point CRC, membrane potential dye (AID 504840); assay type: functional
T7 sequence (Q9GZV3 whole entry): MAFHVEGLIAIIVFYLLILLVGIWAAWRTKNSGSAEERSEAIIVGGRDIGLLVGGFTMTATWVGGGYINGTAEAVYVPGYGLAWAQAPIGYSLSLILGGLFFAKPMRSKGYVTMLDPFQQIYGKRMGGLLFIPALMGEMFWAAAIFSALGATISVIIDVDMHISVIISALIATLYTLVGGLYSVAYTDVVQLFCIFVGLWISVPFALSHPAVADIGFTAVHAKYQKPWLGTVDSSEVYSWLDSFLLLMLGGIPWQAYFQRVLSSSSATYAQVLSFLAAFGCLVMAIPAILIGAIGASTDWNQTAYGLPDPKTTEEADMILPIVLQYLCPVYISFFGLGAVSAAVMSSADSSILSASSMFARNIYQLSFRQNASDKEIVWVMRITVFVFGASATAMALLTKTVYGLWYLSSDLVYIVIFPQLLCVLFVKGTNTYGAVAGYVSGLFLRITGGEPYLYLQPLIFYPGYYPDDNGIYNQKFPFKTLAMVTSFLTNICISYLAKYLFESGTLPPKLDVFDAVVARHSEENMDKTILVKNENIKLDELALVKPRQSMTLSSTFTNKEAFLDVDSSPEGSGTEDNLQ

[17] = non-specific cell cytotoxicity, dose response, cytotoxicity control for PAX8 inhibitor project, plate reader, dry powder samples (AID 743021); assay type: functional, cell-based
Paired box protein Pax-8 = Paired box protein Pax-8 (Homo sapiens, UniProt Q06710); experiment: inhibitors of PAX8-driven TPO luciferase reporter, dose response, RMG-I cells, cherry-pick (AID 687027); assay type: functional, cell-based;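 further: luciferase reporter driven by Pax8 target thyroperoxidase promoter measured by SteadyGlo luminescence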
cells [18] = assay type: functional, cell-based; remark: listed apart in the source
[19] = HepG2 cell cytotoxicity, dose response, cytotoxicity control, ATP luminescence, cherry-pick, activator set 2 (AID 1053143); assay type: functional, cell-based
cells [20] = assay type: functional, cell-based; remark: listed apart in the source

Chain of Disintegrin and metalloproteinase domain-containing protein 17 (P78536 whole entry, the tested form may be a part): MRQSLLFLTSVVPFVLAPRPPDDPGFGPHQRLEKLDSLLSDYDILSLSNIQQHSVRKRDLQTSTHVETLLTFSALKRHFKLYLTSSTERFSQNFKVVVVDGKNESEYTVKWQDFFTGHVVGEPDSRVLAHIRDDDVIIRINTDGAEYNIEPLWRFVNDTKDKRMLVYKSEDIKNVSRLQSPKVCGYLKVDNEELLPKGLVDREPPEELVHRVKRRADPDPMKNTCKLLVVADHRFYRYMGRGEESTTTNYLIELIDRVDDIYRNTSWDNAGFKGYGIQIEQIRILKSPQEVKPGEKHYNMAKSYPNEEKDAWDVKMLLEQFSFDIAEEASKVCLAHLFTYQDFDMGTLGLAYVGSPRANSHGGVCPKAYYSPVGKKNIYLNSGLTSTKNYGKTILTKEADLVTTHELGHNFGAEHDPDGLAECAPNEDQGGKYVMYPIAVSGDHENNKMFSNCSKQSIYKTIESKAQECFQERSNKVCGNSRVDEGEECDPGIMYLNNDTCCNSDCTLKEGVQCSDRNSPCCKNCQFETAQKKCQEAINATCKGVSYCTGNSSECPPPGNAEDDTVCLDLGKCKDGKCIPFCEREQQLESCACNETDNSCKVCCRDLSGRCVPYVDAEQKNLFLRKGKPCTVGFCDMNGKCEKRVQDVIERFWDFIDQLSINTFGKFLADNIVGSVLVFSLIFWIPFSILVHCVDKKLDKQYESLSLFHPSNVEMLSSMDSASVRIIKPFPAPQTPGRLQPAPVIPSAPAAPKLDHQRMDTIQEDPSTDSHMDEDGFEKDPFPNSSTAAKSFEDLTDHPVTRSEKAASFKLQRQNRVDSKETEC
Chain of Galanin receptor type 3 (O60755 whole entry): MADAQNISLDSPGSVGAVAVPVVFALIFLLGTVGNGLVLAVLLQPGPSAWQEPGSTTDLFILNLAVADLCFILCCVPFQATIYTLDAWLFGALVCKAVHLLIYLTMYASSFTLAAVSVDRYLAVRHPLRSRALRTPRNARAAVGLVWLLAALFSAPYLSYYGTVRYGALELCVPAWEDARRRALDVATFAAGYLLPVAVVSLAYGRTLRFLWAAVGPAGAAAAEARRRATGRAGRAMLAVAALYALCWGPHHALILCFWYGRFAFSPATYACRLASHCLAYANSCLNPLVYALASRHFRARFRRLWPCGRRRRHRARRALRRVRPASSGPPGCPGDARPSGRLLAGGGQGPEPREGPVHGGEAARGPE
Chain of Paired box protein Pax-8 (Q06710 whole entry): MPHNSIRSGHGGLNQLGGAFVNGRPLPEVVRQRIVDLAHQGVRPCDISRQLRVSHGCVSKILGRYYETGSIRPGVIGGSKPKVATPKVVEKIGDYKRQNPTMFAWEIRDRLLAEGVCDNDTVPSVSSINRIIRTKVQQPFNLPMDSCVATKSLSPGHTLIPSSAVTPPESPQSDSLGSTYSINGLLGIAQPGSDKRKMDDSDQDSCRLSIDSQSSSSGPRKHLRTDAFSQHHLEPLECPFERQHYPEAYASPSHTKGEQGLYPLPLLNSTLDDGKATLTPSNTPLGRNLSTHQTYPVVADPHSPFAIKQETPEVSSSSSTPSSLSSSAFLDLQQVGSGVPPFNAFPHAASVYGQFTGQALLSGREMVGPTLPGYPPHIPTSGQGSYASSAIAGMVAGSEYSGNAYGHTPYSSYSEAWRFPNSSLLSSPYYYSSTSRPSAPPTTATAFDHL

## CCOC(=O)c1nn(-c2ccccc2C)c(=O)c2c(N)scc12
[1]
  AC50: > 120 µM (inactive)
Protein RecA
  EC50: 11.4 µM (active)
Caspase-3
  IC50: 93.3 µM (inactive)
[2]
  IC50: 4.12 µM (active)
[3]
  IC50: > 50 µM (not active)
[4]
  IC50: 17.3 µM (active)

## COc1cccc(C(Nc2ccccc2)c2ccc3ccc(C)nc3c2O)c1 (stereo not given)
[5]
  IC50: > 69.2 µM (inactive)
[6]
  IC50: 18.5 µM (inactive)

## O=C(Nc1nnc(SCc2ccccc2F)s1)C1=COCCO1
[7]
  IC50: > 67.6 µM (inactive)
Cells [8]
  IC50: > 67.6 µM (inactive)

## CC(C)N1CC2(CN(Cc3cccc(F)c3)C2)Oc2c(NC(=O)c3ccncc3)cccc2C1=O
[9]
  AC50: 0.41 µM (active)

## CCn1c2ccccc2c2cc(C3C(C#N)=C(N)Oc4[nH]nc(COC)c43)ccc21 (stereo not given)
[1]
  AC50: > 380 µM (inconclusive)
[10]
  EC50: 7.72 µM (active)
Galanin receptor type 3
  IC50: > 29.9 µM (inactive)
Protein RecA
  EC50: 2.7 µM (active)
Cells [11]
  EC50: > 29.9 µM (inactive)
[12]
  EC50: 7.03 µM (active)

## CC(C)N1CCN(C2=C(Nc3ccc(Cl)c(Cl)c3)C(=O)c3ccccc3C2=O)CC1
[13]
  AC50: 3.21 µM (active)
[14]
  AC50: 8.71 µM (active)
[15]
  AC50: 19.4 µM (active)

## COc1ccccc1Nc1nnc(SCC2CCCCO2)s1 (stereo not given)
[7]
  IC50: > 0.834 µM (active)
Cells [8]
  IC50: > 67.5 µM (inactive)
[16]
  IC50: 4.17 µM (active)

## CC(C)c1cccc(-c2csc(C(O)c3cccc(Cl)c3)n2)c1 (stereo not given)
[5]
  IC50: > 69.5 µM (inactive)
[6]
  IC50: 42.8 µM (inactive)

## COc1ccc(-c2cc(CNc3nc(NC(C)C)nc4cc(-c5ccccc5)sc34)on2)cc1
[17]
  AC50: 18.8 µM (active)
Paired box protein Pax-8
  AC50: 9.84 µM (active)

## CN(C)C(=O)c1cccc(-c2ccc([C@H]3[C@@H](CO)N4CCCCN(C(=O)C5CCC5)C[C@H]34)cc2)c1
[9]
  AC50: 1.29 µM (active)

## COc1ccc2nc(NC(=O)c3cccs3)sc2c1
Cells [18]
  EC50: 7.18 µM (active)
[19]
  AC50: 26 µM (active)
Cells [20]
  EC50: > 350 µM (not active)

## NC(=O)c1ccc(NC(=O)C#Cc2ccccc2)cc1
[19]
  AC50: 26 µM (active)

## CC(C)N1CCN(C2=C(Nc3ccc(I)cc3)C(=O)c3ccccc3C2=O)CC1
[13]
  AC50: 2.96 µM (active)
[14]
  AC50: 10.8 µM (active)
[15]
  AC50: 33.9 µM (active)
